These results are taken from patent EP2459571B1, “NITROIMIDAZOOXAZINES AND THEIR USES IN ANTI-TUBERCULAR THERAPY” (priority 2009, dated 2011).

Converted amounts (≈) assume the structure as drawn.

For data set [1], the system named is replicating Mycobacterium tuberculosis. The experiment in a line: MIC, microplate Alamar blue assay (MABA), 8 day. The format is cell-based. The settings on record: 192 h, read-out: MIC MABA (aerobic). In general terms: Alamar Blue is a resazurin reagent that responds to reducing activity.
The test system of data set [2] is M. tuberculosis Erdman. More on the design: species or system BALB/c mice. The conditions noted are these: mouse, po, 100 mg/kg.
The test system of data set [3] is M. tuberculosis bacteria in the non-replicating state. The experiment in a line: microbe, parasite or virus in culture. In kind it is cell-based. The settings on record: Mycobacterium tuberculosis, 264 h, low oxygen, 11 day, read-out: MIC LORA (anaerobic).
Data set [4] in a line: in vivo. The settings on record: mouse, po, 40 mg/kg.
The conditions of data set [5]: CD-1 mice, oral, 40 mg/kg; for t½ (h) plasma: suspension in 0.5% carboxymethylcellulose/0.08% Tween 80.

In the case of `O=[N+]([O-])c1cn2c(n1)OC[C@@H](OCc1ccc(-c3ccc(OC(F)(F)F)c(F)c3)cc1)C2` [compound 2, (6S)-6-{[3'-Fluoro-4'-(trifluoromethoxy)[1,1'-biphenyl]-4-yl]methoxy}-2-nitro-6,7-dihydro-5H-imidazo[2,1-b][1,3]oxazine], the results for the MIC in data set [1] and in data set [3] were 0.03 µM (≈ 0.0136 µg/mL) and 0.34 µM (≈ 0.154 µg/mL), respectively. Further, the “In vivo efficacy vs PA-824, Acute” value in data set [2] stood at 419. The AUC (commonly the area under the concentration-time curve, a measure of exposure) in data set [4] was more than 513 µg·h/mL. This compound returned a Kp in data set [4] of more than 1.

As to `O=[N+]([O-])c1cn2c(n1)OC[C@@H](OCc1cnc(-c3ccc(OC(F)(F)F)cc3)cn1)C2` [compound 4, (6S)-2-nitro-6-({5-[4-(trifluoromethoxy)phenyl]-2-pyrazinyl}methoxy)-6,7-dihydro-5H-imidazo[2,1-b][1,3]oxazine], the MIC in data set [1] is 0.023 µM (≈ 0.0101 µg/mL). In addition, in data set [5], the Cmax plasma came to 9600 ng/mL and the “t½ (h) plasma” value amounted to 7.2 h. In data set [2], the “In vivo efficacy vs PA-824, Acute” value came to 167. Also, the MIC in data set [3] is 1 µM (≈ 0.437 µg/mL). Further, in data set [4], the AUC was more than 324 µg·h/mL.

On to `O=[N+]([O-])c1cn2c(n1)OC[C@@H](Oc1ccc(-c3ccc(OC(F)(F)F)cc3)cc1)C2` [compound 13, (6S)-2-Nitro-6-{[4'-(trifluoromethoxy)[1,1'-biphenyl]-4-yl]oxy}-6,7-dihydro-5H-imidazo[2,1-b][1,3]oxazine], for which the MIC in data set [1] was 0.05 µM (≈ 0.0211 µg/mL); in data set [3] it was 1.3 µM (≈ 0.548 µg/mL). Also, in data set [5], the Cmax plasma was 1860 ng/mL. For the same compound, the “In vivo efficacy vs PA-824, Acute” value in data set [2] is recorded as 8.1. The same compound had an AUC in data set [4] of 347 µg·h/mL.

Take `O=[N+]([O-])c1cn2c(n1)OC[C@@H](OCc1ccc(-c3ccc(C(F)(F)F)cn3)cc1F)C2` [compound 14, (6S)-6-({2-Fluoro-4-[5-(trifluoromethyl)-2-pyridinyl]benzyl}oxy)-2-nitro-6,7-dihydro-5H-imidazo[2,1-b][1,3]oxazine]: the results for the MIC in data set [1] and in data set [3] were 0.055 µM (≈ 0.0241 µg/mL) and 2.3 µM (≈ 1.01 µg/mL), respectively. For the same compound, in data set [2], the “In vivo efficacy vs PA-824, Acute” value is given as 52. The compound also came in with an AUC in data set [4] of 148 µg·h/mL.

As for `O=[N+]([O-])c1cn2c(n1)OC[C@@H](OCc1ccc(-c3ccc(OC(F)(F)F)cc3)c(F)c1)C2` [compound 15, (6S)-6-{[2-Fluoro-4'-(trifluoromethoxy)[1,1'-biphenyl]-4-yl]methoxy}-2-nitro-6,7-dihydro-5H-imidazo[2,1-b][1,3]oxazine], the MIC in data set [1] is 0.055 µM (≈ 0.0249 µg/mL); in data set [3] it was 0.51 µM (≈ 0.231 µg/mL). Further, the “In vivo efficacy vs PA-824, Acute” value in data set [2] was more than 933.

For `O=[N+]([O-])c1cn2c(n1)OC[C@@H](OCc1cnc(-c3ccc(OC(F)(F)F)cc3)nc1)C2` [compound 16], the MIC in data set [1] is 0.027 µM (≈ 0.0118 µg/mL); in data set [3], 1.8 µM (≈ 0.787 µg/mL). Further, in data set [2], the “In vivo efficacy vs PA-824, Acute” value was more than 1120. This compound yielded an AUC in data set [4] of 131 µg·h/mL.

On to `O=[N+]([O-])c1cn2c(n1)OC[C@@H](OCc1ccc(C#Cc3ccc(OC(F)(F)F)cc3)cn1)C2` [compound 18, (6S)-2-Nitro-6-[(5-{[4-(trifluoromethoxy)phenyl]ethynyl}-2-pyridinyl)methoxy]-6,7-dihydro-5H-imidazo[2,1-b][1,3]oxazine], for which the MIC in data set [1] was found to be 0.02 µM (≈ 0.00921 µg/mL); in data set [3], 1.4 µM (≈ 0.645 µg/mL). For the same compound, the “In vivo efficacy vs PA-824, Acute” value in data set [2] is on record as more than 933. Further, the AUC in data set [4] stood at 235 µg·h/mL.

Turning to `O=[N+]([O-])c1cn2c(n1)OC[C@@H](OC/C=C/c1ccc(-c3ccc(OC(F)(F)F)cc3)cc1)C2` [compound 19, (6S)-2-Nitro-6-({(2E)-3-[4'-(trifluoromethoxy)[1,1'-biphenyl]-4-yl]-2-propenyl}oxy)-6,7-dihydro-5H-imidazo[2,1-b][1,3]oxazine], the values for the MIC in data set [1] and in data set [3] were 0.063 µM (≈ 0.0291 µg/mL) and more than 64 µM, respectively.

In the case of `O=C(O[C@@H]1COc2nc([N+](=O)[O-])cn2C1)N1CCN(c2ccc(OC(F)(F)F)cc2)CC1` [compound 20], the MIC in data set [1] was 0.13 µM (≈ 0.0595 µg/mL). In data set [5], the Cmax plasma came out at 2500 ng/mL and the “t½ (h) plasma” value came out at 10.5 h. The “In vivo efficacy vs PA-824, Acute” value in data set [2] was 5.2. The MIC in data set [3] came to 1.1 µM (≈ 0.503 µg/mL). The same compound returned an AUC in data set [4] of 169 µg·h/mL.

Regarding `O=[N+]([O-])c1cn2c(n1)OC[C@@H](OCc1ccc(-c3ccc(OC(F)(F)F)c(F)c3)nc1)C2` [compound 21, (6S)-6-({6-[3-Fluoro-4-(trifluoromethoxy)phenyl]-3-pyridinyl}methoxy)-2-nitro-6,7-dihydro-5H-imidazo[2,1-b][1,3]oxazine], the MIC in data set [1] was 0.025 µM (≈ 0.0114 µg/mL); in data set [3], 0.93 µM (≈ 0.423 µg/mL). Further, the Cmax plasma in data set [5] came to 7000 ng/mL. In addition, in data set [2], the “In vivo efficacy vs PA-824, Acute” value is listed as more than 840. In data set [4], this compound showed an AUC of 251 µg·h/mL.

For `O=[N+]([O-])c1cn2c(n1)OC[C@@H](OCc1ccc(-c3ccc(C(F)(F)F)nc3)cc1F)C2` [compound 23, (6S)-6-({2-Fluoro-4-[6-(trifluoromethyl)-3-pyridinyl]benzyl}oxy)-2-nitro-6,7-dihydro-5H-imidazo[2,1-b][1,3]oxazine], the figures for the MIC in data set [1] and in data set [3] were 0.13 µM (≈ 0.057 µg/mL) and 0.68 µM (≈ 0.298 µg/mL), respectively. Also, the “In vivo efficacy vs PA-824, Acute” value in data set [2] turned out to be 8.8. Further, the AUC in data set [4] was 55.4 µg·h/mL.

Regarding `O=[N+]([O-])c1cn2c(n1)OC[C@@H](OCc1ccc(-c3ccc(F)cn3)cc1)C2` [compound 26, (6S)-6-{[4-(5-Fluoro-2-pyridinyl)benzyl]oxy}-2-nitro-6,7-dihydro-5H-imidazo[2,1-b][1,3]oxazine], the MIC worked out at 0.035 µM (≈ 0.013 µg/mL) in data set [1] and 1.3 µM (≈ 0.481 µg/mL) in data set [3].

Take `O=[N+]([O-])c1cn2c(n1)OC[C@@H](OCc1cnn(-c3ccc(OC(F)(F)F)cc3)c1)C2` [compound 27]: the MIC came to 0.15 µM (≈ 0.0638 µg/mL) in data set [1] and 1.8 µM (≈ 0.766 µg/mL) in data set [3].

For the compound `O=[N+]([O-])c1cn2c(n1)OC[C@@H](OCc1ccc(-c3ccc(OC(F)(F)F)c(Cl)c3)nc1)C2` [compound 28, (6S)-6-({6-[3-Chloro-4-(trifluoromethoxy)phenyl]-3-pyridinyl}methoxy)-2-nitro-6,7-dihydro-5H-imidazo[2,1-b][1,3]oxazine], the MIC in data set [1] was 0.017 µM (≈ 0.008 µg/mL); in data set [3] it was 1 µM (≈ 0.471 µg/mL). In addition, in data set [2], the “In vivo efficacy vs PA-824, Acute” value was more than 933. In data set [4], this compound showed an AUC of 284 µg·h/mL.

Regarding `O=[N+]([O-])c1cn2c(n1)OC[C@@H](OCc1ncc(-c3ccc(OC(F)(F)F)cc3)cn1)C2` [compound 29], the values for the MIC in data set [1] and in data set [3] were 0.11 µM (≈ 0.0481 µg/mL) and 1.9 µM (≈ 0.831 µg/mL), respectively.

For the compound `O=[N+]([O-])c1cn2c(n1)OC[C@@H](OCc1ccc(C#Cc3ccc(OC(F)(F)F)cc3)cc1)C2` [compound 32, (6S)-2-Nitro-6-[(4-{[4-(trifluoromethoxy)phenyl]ethynyl}benzyl)oxy]-6,7-dihydro-5H-imidazo[2,1-b][1,3]oxazine], the MIC was 0.017 µM (≈ 0.00781 µg/mL) in data set [1] and more than 128 µM in data set [3].

In the case of `O=[N+]([O-])c1cn2c(n1)OC[C@@H](OCc1ccc(C#Cc3ccc(OC(F)(F)F)cc3)nc1)C2` [compound 33, (6S)-2-Nitro-6-[(6-{[4-(trifluoromethoxy)phenyl]ethynyl}-3-pyridinyl)methoxy]-6,7-dihydro-5H-imidazo[2,1-b][1,3]oxazine], the MIC in data set [1] was found to be 0.02 µM (≈ 0.00921 µg/mL); in data set [3], 0.94 µM (≈ 0.433 µg/mL).
